Results taken from ChEMBL document CHEMBL4219098, “Unprecedented sugar bridged bisindoles selective inhibiting glioma stem cells” (Bioorg Med Chem, 2018).
Active and inactive are the calls of the source. The calls are words filed in the database; no cut-off is given here.

Columns and labels:
[1] = Cytotoxicity against human GSC18 cells assessed as reduction in cell viability after 4 days by MTS assay; type: functional, cell-based; details: GSC18, 96 h
HEK-293T [2] = assay: Cytotoxicity against human 293T cells assessed as reduction in cell viability after 4 days by MTS assay; type: cell-based; details: 96 h
[3] = Cytotoxicity against human HAC cells assessed as reduction in cell viability after 4 days by MTS assay; type: cell-based; details: 96 h
[4] = Cytotoxicity against human GSC12 cells assessed as reduction in cell viability after 4 days by MTS assay; type: functional, cell-based; details: GSC12, 96 h
[5] = Cytotoxicity against human HAC cells assessed as cell growth inhibition at 25 uM by phenotypic screening-based assay
Homo sapiens [6] = species on record: Homo sapiens; assay: Induction of intrinsic apoptosis in human GSC18 cells assessed as increase in bcl-2 mRNA levels at 25 uM after 10 days by RT-PCR analysis relative to DMSO; type: functional, cell-based
Homo sapiens [7] = species on record: Homo sapiens; assay: Induction of extrinsic apoptosis in human GSC18 cells assessed as increase in IL1 mRNA levels at 25 uM after 10 days by RT-PCR analysis relative to DMSO; type: functional, cell-based
Homo sapiens [8] = species on record: Homo sapiens; assay: Cytotoxicity against human GSC12 cells assessed as cell growth inhibition at 25 uM by phenotypic screening-based assay; type: functional
Homo sapiens [9] = species on record: Homo sapiens; assay: Induction of apoptosis in human GSC18 cells assessed as increase in calpain1 mRNA levels at 25 uM after 10 days by RT-PCR analysis relative to DMSO; type: functional, cell-based
Homo sapiens [10] = assay: Antiproliferative activity against human GSC18 cells assessed as decrease in number of clonal spheres at 25 uM administered 2 weeks post clonal sphere formation measured after 10 days by crystal violet-staining based assay; type: functional, cell-based
Homo sapiens [11] = species on record: Homo sapiens; assay: Induction of intrinsic apoptosis in human GSC18 cells assessed as increase in bid mRNA levels at 25 uM after 10 days by RT-PCR analysis relative to DMSO; type: functional, cell-based
Homo sapiens [12] = species on record: Homo sapiens; assay: Induction of apoptosis in human GSC18 cells assessed as increase in caspase-3 positive apoptotic cells at 25 uM by immunofluorescence-staining based microscopic analysis; type: functional, cell-based
Homo sapiens [13] = species on record: Homo sapiens; assay: Induction of apoptosis in human GSC18 cells assessed as increase in caspase12 mRNA levels at 25 uM after 10 days by RT-PCR analysis relative to DMSO; type: functional, cell-based
HEK-293T [14] = assay: Cytotoxicity against human 293T cells assessed as cell growth inhibition at 25 uM by phenotypic screening-based assay
Homo sapiens [15] = species on record: Homo sapiens; assay: Antiproliferative activity against human GSC18 cells assessed as reduction in BrdU-positive proliferating cells at 25 uM after 72 hrs by BrdU incorporation assay relative to DMSO; type: functional, cell-based
Homo sapiens [16] = species on record: Homo sapiens; assay: Induction of intrinsic apoptosis in human GSC18 cells assessed as increase in bax mRNA levels at 25 uM after 10 days by RT-PCR analysis relative to DMSO; type: functional, cell-based
Homo sapiens [17] = species on record: Homo sapiens; assay: Induction of intrinsic apoptosis in human GSC18 cells assessed as increase in apaf1 mRNA levels at 25 uM after 10 days by RT-PCR analysis relative to DMSO; type: functional, cell-based
Homo sapiens [18] = species on record: Homo sapiens; assay: Cytotoxicity against human GSC18 cells assessed as cell growth inhibition at 25 uM by phenotypic screening-based assay; type: functional
Homo sapiens [19] = assay: Antiproliferative activity against human GSC18 cells assessed as damage to clonal spheres morphology at 25 uM administered 2 weeks post clonal sphere formation measured after 10 days by crystal violet-staining based assay; type: functional, cell-based
Homo sapiens [20] = species on record: Homo sapiens; assay: Induction of extrinsic apoptosis in human GSC18 cells assessed as increase in TNFalpha mRNA levels at 25 uM after 10 days by RT-PCR analysis relative to DMSO; type: functional, cell-based

Structure (SMILES): CC(=O)O[C@H]1C(=O)[C@@]2(C)[C@H]([C@H](OC(=O)c3ccccc3)[C@]3(O)C[C@H](OC(=O)[C@H](O)[C@@H](NC(=O)c4ccccc4)c4ccccc4)C(C)=C1C3(C)C)[C@]1(OC(C)=O)CO[C@@H]1C[C@@H]2O [PACLITAXEL]
- IC50 [1]: 10.4 µM
- IC50 (HEK-293T [2]): 0.0023 µM
- IC50 [3]: 0.0121 µM
- IC50 [4]: 12.5 µM

Structure (SMILES): C=C[C@H]1[C@H](O[C@@H]2O[C@H](CO[C@H]3C[C@@]45c6ccccc6N[C@]4(O3)[C@@H]3C[C@@H](/C(=C\C)C=[N+]3[O-])[C@H]5CC(=O)OC)[C@@H](O)[C@H](O)[C@H]2O)OC=C2C(=O)N3CCc4c([nH]c5ccccc45)[C@@H]3C[C@H]21
- IC50 [1]: 19.2 µM
- Activity [5]: Non-Toxic
- Activity (Homo sapiens [6]): inactive
- Activity (Homo sapiens [7]): Active
- growth inhibition (GI) (Homo sapiens [8]): Active
- Activity (Homo sapiens [9]): inactive
- IC50 (HEK-293T [2]): > 90 µM
- Activity (Homo sapiens [10]): Active
- Activity (Homo sapiens [11]): inactive
- Activity (Homo sapiens [12]): Active
- Activity (Homo sapiens [13]): inactive
- Activity (HEK-293T [14]): Non-Toxic
- Activity (Homo sapiens [15]): Active
- IC50 [3]: > 90 µM
- Activity (Homo sapiens [16]): inactive
- Activity (Homo sapiens [17]): inactive
- growth inhibition (GI) (Homo sapiens [18]): Active
- Activity (Homo sapiens [19]): Active
- Activity (Homo sapiens [20]): Active
- IC50 [4]: 30.9 µM

Structure (SMILES): C=C[C@H]1[C@H](O[C@@H]2O[C@H](CO[C@H]3C[C@@]45c6ccccc6N[C@]4(O3)[C@@H]3C[C@@H](/C(=C/C)C=[N+]3[O-])[C@H]5CC(=O)OC)[C@@H](O)[C@H](O)[C@H]2O)OC=C2C(=O)N3CCc4c([nH]c5ccccc45)[C@@H]3C[C@H]21
- IC50 [1]: 16.1 µM
- Activity [5]: Non-Toxic
- Activity (Homo sapiens [6]): inactive
- Activity (Homo sapiens [7]): Active
- growth inhibition (GI) (Homo sapiens [8]): Active
- Activity (Homo sapiens [9]): inactive
- IC50 (HEK-293T [2]): > 90 µM
- Activity (Homo sapiens [10]): Active
- Activity (Homo sapiens [11]): inactive
- Activity (Homo sapiens [12]): Active
- Activity (Homo sapiens [13]): inactive
- Activity (HEK-293T [14]): Non-Toxic
- Activity (Homo sapiens [15]): Active
- IC50 [3]: > 90 µM
- Activity (Homo sapiens [16]): inactive
- Activity (Homo sapiens [17]): inactive
- growth inhibition (GI) (Homo sapiens [18]): Active
- Activity (Homo sapiens [19]): Active
- Activity (Homo sapiens [20]): Active
- IC50 [4]: 20.7 µM
